pEC50: −log10 of the molar value.
Key:
human TLR7 = target: T1, human TLR7 (Homo sapiens, UniProt Q9NYK1); experiment: HEK-Blue TLR7 reporter assay (SEAP reporter); type: cell-based; conditions: HEK-Blue TLR7 cells, 18 h treatment, SEAP readout; average if more than one assay; read-out: TLR7 Agonism HEK Blue ™ Assay EC50
T1 construct: host or cells: HEK-Blue TLR7 cells (engineered human embryonic kidney cells)
T1 sequence (Q9NYK1 27-1049): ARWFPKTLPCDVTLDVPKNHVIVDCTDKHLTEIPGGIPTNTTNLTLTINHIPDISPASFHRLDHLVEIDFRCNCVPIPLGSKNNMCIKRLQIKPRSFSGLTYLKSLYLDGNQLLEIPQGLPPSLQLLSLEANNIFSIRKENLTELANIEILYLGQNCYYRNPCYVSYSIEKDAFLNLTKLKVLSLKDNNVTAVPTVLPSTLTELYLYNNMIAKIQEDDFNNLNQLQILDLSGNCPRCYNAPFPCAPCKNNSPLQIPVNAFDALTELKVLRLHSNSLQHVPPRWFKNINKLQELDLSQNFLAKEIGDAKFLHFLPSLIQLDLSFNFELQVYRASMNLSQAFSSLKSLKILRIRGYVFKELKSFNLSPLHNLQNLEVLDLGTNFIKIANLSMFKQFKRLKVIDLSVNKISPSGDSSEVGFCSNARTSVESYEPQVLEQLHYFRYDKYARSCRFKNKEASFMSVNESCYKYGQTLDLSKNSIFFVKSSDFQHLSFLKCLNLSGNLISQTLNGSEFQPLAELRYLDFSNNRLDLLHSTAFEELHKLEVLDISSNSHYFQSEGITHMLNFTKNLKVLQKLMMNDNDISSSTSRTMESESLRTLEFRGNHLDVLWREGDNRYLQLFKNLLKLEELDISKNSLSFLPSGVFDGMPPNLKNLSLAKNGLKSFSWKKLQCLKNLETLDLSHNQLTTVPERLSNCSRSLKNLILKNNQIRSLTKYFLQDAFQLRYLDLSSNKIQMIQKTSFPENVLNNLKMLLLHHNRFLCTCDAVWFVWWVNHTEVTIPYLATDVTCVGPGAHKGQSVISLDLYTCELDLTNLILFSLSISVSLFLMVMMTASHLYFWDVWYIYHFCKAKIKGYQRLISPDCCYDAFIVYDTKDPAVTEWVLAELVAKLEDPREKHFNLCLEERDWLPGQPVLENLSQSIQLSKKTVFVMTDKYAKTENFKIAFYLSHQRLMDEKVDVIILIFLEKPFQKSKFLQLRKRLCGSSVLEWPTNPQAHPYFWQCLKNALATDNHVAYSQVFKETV
Source text: Table A presents biological activity data for compounds disclosed herein. One set of data relates TLR7 agonism activity using the HEK-Blue™ TLR7 reporter assay, as described in Example 11 hereinbelow. Another set of data relates to the induction of interleukin 6 (IL-6), a cytokine that plays an important role in the TLR7 pathway. […] In some instances, more that one TLR7 agonism or IL-6 induction assay was made; if so, the reported value is an average.
This example describes a method for assaying TLR7 agonist activity of the compounds disclosed in this specification.
HEK-Blue™ TLR7 cells were added to each well of a 384-well tissue-culture plate (15,000 cells per well) and incubated 16-18 h at 37° C., 5% CO2. Compounds (100 nl) were dispensed into wells containing the HEK-Blue™ TLR cells and the treated cells were incubated at 37° C., 5% CO2. After 18 h treatment ten microliters of freshly-prepared Quanti-Blue™ reagent (Invivogen) was added to each well, incubated for 30 min (37° C., 5% CO2) and SEAP levels measured using an Envision plate reader (OD=620 nm). […] EC50's can be determined with software such as Graphpad Prism™.

interleukin 6 (IL-6) = experiment: Interleukin 6 induction assay in human whole blood (AlphaLISA); type: cell-based; conditions: Homo sapiens, 20 h, 20 h at 37° C., 100% set by resiquimod reference at 10 μM, average if more than one assay, read-out: IL-6 Induction EC50 (nM) (normalized 10 μM)
Source text: Table A presents biological activity data for compounds disclosed herein. One set of data relates TLR7 agonism activity using the HEK-Blue™ TLR7 reporter assay, as described in Example 11 hereinbelow. Another set of data relates to the induction of interleukin 6 (IL-6), a cytokine that plays an important role in the TLR7 pathway. […] In some instances, more that one TLR7 agonism or IL-6 induction assay was made; if so, the reported value is an average. This example describes a method for assaying interleukin 6 (IL 6) induction by compounds disclosed in this specification. Compounds suspended in DMSO were transferred to individual wells of a Matrix Technologies clear, V-bottom 384-well plate using ECHO acoustic liquid handling technology (25 nL per well). Human whole-blood samples (25 uL) were added to each well using a CyBio FeliX liquid handling instrument and the plate was shaken on a plate shaker for three minutes before incubating the reaction mixtures at 37° C. for 20 h. Basel RPMI 1640 medium (supplemented with L-glutamine) was then added to each well (25 uL per well) prior to liberating plasma from each sample by centrifugation (450×g, 5 min, ambient temperature). Treated plasma samples (3 uL) were subsequently transferred to individual wells of a white, shallow, 384-well ProxiPlate (PerkinElmer) using the FeliX liquid handling instrument and their IL6 levels were measured using AlphaLISA technology as described by the manufacturer (PerkinElmer).

Row | pEC50 (human TLR7) | Compound | EC50 (interleukin 6 (IL-6)) [nM]
1 | 8.54 | Nc1nc2nc3c1nc(O)n3Cc1ccc(-c3cnn(CCNC4CC4)c3)c(c1)CCCCCO2 [IIb-03] | 65
2 | 8.42 | Nc1nc2nc3c1nc(O)n3Cc1ccc(-c3cnn(CCN4CCOCC4)c3)c(c1)C/C=C/CCO2 [IIb-37] | 180
3 | 8.96 | Nc1nc2nc3c1nc(O)n3Cc1ccc(-c3ccc(CNC4CCC4)cc3)c(c1)C/C=C/CCO2 [IIb-10] | 0.41
4 | 7.66 | Nc1nc2nc3c1nc(O)n3Cc1ccc(-c3cnn(CC(=O)NC4CNC4)c3)c(c1)C/C=C/CCO2 [IIb-38] | 1000
5 | 7.68 | Nc1nc2nc3c1nc(O)n3Cc1ccc(-c3cn[nH]c3)c(c1)C/C=C/CCO2 [IIb-06] | 570
6 | 9.48 | Nc1nc2nc3c1nc(O)n3Cc1ccc(-c3ccc(CNC4CCC4)cc3)c(c1)C/C=C\CCO2 [IIb-11] | 0.68
7 | 9.17 | Nc1nc2nc3c1nc(O)n3Cc1ccc(-c3cnn(CCNC4CC4)c3)c(c1)C/C=C/CCO2 [IIb-01] | 42
8 | 9.66 | Nc1nc2nc3c1nc(O)n3Cc1ccc(-c3cnn(CCNC4CCC4)c3)c(c1)C/C=C/CCO2 [IIb-07] | 1.6
9 | 9.59 | CC1(NCc2ccc(-c3ccc4cc3C/C=C/CCOc3nc(N)c5nc(O)n(c5n3)C4)cc2)CCC1 [IIb-26] | 1

More lines, now with the values behind:

Row | Compound | pEC50 (human TLR7) | EC50 (interleukin 6 (IL-6)) [nM]
10 | Nc1nc2nc3c1nc(O)n3Cc1ccc(-c3ccc(CNC4CCC4)cc3)c(c1)C/C=C/CCCO2 [IIb-16] | 8.92 | 3.6
11 | Nc1nc2nc3c1nc(O)n3Cc1ccc(Nc3cccc(CNC4CCC4)c3)c(c1)C/C=C/CCO2 [IId-01] | 7.82 | 60
12 | Nc1nc2nc3c1nc(O)n3Cc1cc(cc(Oc3ccc(CNC4CCC4)cc3)c1)C/C=C\CCO2 [IIa-13] | 9.03 | 13
13 | Nc1nc2nc3c1nc(O)n3Cc1cc(cc(Oc3ccc(CNC4CC4)cc3)c1)C/C=C/CCO2 [IIa-18] | 8.00 | 32
14 | Nc1nc2nc3c1nc(O)n3Cc1ccc(-c3ccc(C(=O)NC4CNC4)cc3)c(c1)C/C=C\CCO2 [IIb-30] | 8.80 | 36
15 | Nc1nc2nc3c1nc(O)n3Cc1ccc(-c3ccc(C(=O)NC4CNC4)cc3)c(c1)C/C=C/CCO2 [IIb-32] | 8.39 | 32
16 | Nc1nc2nc3c1nc(O)n3Cc1ccc(Oc3cccc(CNC4CC4)c3)c(c1)C/C=C\CCO2 [IIa-05] | 8.14 | 18
17 | Nc1nc2nc3c1nc(O)n3Cc1ccc(Oc3ccc(CNC4CCC4)cc3)c(c1)C/C=C\CCO2 [IIa-06] | 9.00 | 2.2
18 | Nc1nc2nc3c1nc(O)n3Cc1ccc(OCC(=O)NC3CNC3)c(c1)C/C=C\CCO2 [IIe-01] | 8.28 | 40
19 | Nc1nc2nc3c1nc(O)n3Cc1ccc(Oc3cccc(C(=O)NC4CNC4)c3)c(c1)C/C=C\CCO2 [IIa-20] | 7.82 | 91
20 | Nc1nc2nc3c1nc(O)n3Cc1ccc(OCC(=O)NC3CNC3)c(c1)C/C=C/CCO2 [IIe-02] | 7.15 | 1100
21 | Nc1nc2nc3c1nc(O)n3Cc1cc(cc(OC3CCNCC3)c1)C/C=C/CCO2 [IIc-02] | 7.64 | 200
22 | Nc1nc2nc3c1nc(O)n3Cc1ccc(-c3ccc(CNC4CCC4)cc3)c(c1)OCCCO2 [IIb-20] | 7.25 | 150
23 | Nc1nc2nc3c1nc(O)n3Cc1cc(cc(Oc3ccc(CNC4CC4)cc3)c1)C/C=C\CCO2 [IIa-15] | 8.04 | 57
24 | COC(=O)CNCc1ccc(Oc2ccc3cc2C/C=C/CCOc2nc(N)c4nc(O)n(c4n2)C3)cc1 [IIa-10] | 8.37 | 50

Reference: patent US11485741B2, “Macrocyclic toll-like receptor 7 (TLR7) agonists” (BRISTOL-MYERS SQUIBB COMPANY, priority 2018, dated 2022)
